Results: ChEMBL document CHEMBL1146378, “Synthesis and cytotoxicity of novel fatty acid-nucleoside conjugates” (2007)
Calls of active or inactive are those of the source. The calls are words filed in the database; no cut-off is given here.

Assays:
Assay type in all cases: functional
EC9706 [1] = test: (§1) Cytotoxicity against human Ec9706 cells at 50 uM after 48 hrs by MTT assay
[2] = (§2) Cytotoxicity against human Ec9706 cells at 400 uM after 48 hrs by MTT assay; settings: EC9706, 48 h
A549 [3] = test: Cytotoxicity against human A549 cells at 200 uM after 48 hrs by MTT assay; settings: for inhibition at 200 µM: A549, 48 h
[4] = (§3) Cytotoxicity against human Ec9706 cells at 100 uM after 48 hrs by MTT assay; settings: EC9706, 48 h
A549 [5] = test: Cytotoxicity against human A549 cells at 400 uM after 48 hrs by MTT assay; settings: for inhibition at 400 µM: A549, 48 h
[6] = (§4) Cytotoxicity against human Ec9706 cells at 200 uM after 48 hrs by MTT assay; settings: EC9706, 48 h
A549 [7] = test: Cytotoxicity against human A549 cells at 50 uM after 48 hrs by MTT assay; settings: for inhibition at 50 µM: A549, 48 h
A549 [8] = test: Cytotoxicity against human A549 cells at 100 uM after 48 hrs by MTT assay; settings: for inhibition at 100 µM: A549, 48 h
[9] = as §1; settings: EC9706, 48 h
EC9706 [10] = test: as §3
EC9706 [11] = test: as §2
EC9706 [12] = test: as §4

Structure (SMILES)	Activity (EC9706 [1])	inhibition at 400 µM [2]	inhibition at 200 µM (A549 [3])	inhibition at 100 µM [4]	inhibition at 400 µM (A549 [5])	inhibition at 200 µM [6]	inhibition at 50 µM (A549 [7])	inhibition at 100 µM (A549 [8])	inhibition at 50 µM [9]	Activity (EC9706 [10])	Activity (A549 [7])	Activity (A549 [8])	Activity (EC9706 [11])	Activity (A549 [3])	Activity (A549 [5])	Activity (EC9706 [12])
CCCCC/C=C\C/C=C\CCCCCCCC(=O)OCCn1c(=O)c(F)cn([C@H]2CCCO2)c1=O	inactive	54.4%	24.7%	14.4%	90.7%	31.9%	1.8%	11%	–	–	–	–	–	–	–	–
CCCCC/C=C\C/C=C\C/C=C\C/C=C\CCCC(=O)OCCn1c(=O)c(F)cn([C@H]2CCCO2)c1=O	–	69.9%	78.2%	30.8%	92.1%	59.9%	1.6%	33.8%	19.3%	–	–	–	–	–	–	–
O=c1[nH]c(=O)n(C2CCCO2)cc1F (stereo not given) [TEGAFUR]	–	17.4%	15.2%	–	17.8%	7.8%	–	12.7%	–	inactive	–	–	–	–	–	–
CCCCCCCCCCCCCCCCCC(=O)OCCn1c(=O)c(F)cn([C@H]2CCCO2)c1=O	inactive	–	–	–	–	–	–	–	–	inactive	inactive	inactive	–	–	–	–
O=c1c(F)cn([C@H]2CCCO2)c(=O)n1CCO	–	–	–	–	–	–	–	–	–	inactive	–	inactive	inactive	inactive	inactive	inactive
CCCCCCCCCCCC(=O)OCCn1c(=O)c(F)cn([C@H]2CCCO2)c1=O	inactive	–	–	–	–	–	–	–	–	inactive	inactive	inactive	–	–	–	–
CCCCCCCC/C=C\CCCCCCCC(=O)OCCn1c(=O)c(F)cn([C@H]2CCCO2)c1=O	–	–	–	4.9%	–	–	2.5%	4.8%	3.7%	–	–	–	–	–	–	–
